Our source for the IC50 values is patent publication US20250333404A1, “DEUTERATED COMPOUNDS” (Neurocrine Biosciences, Inc., priority 2022, published 2025).

Molecules are shown by their SMILES.

The assay concerns the target NaV1.6 (Homo sapiens (Human), UniProt Q9UQD0). Description: Sodium influx assay (ANG2 dye), NaV1.6. The assay is classed as cell-based. The settings on record: Trex HEK293 cells, human α-subunit + β1-subunit; inactivated state; read-out: Flux NaV1.6 IC50.

NaV1.6, sequence (Q9UQD0 whole entry): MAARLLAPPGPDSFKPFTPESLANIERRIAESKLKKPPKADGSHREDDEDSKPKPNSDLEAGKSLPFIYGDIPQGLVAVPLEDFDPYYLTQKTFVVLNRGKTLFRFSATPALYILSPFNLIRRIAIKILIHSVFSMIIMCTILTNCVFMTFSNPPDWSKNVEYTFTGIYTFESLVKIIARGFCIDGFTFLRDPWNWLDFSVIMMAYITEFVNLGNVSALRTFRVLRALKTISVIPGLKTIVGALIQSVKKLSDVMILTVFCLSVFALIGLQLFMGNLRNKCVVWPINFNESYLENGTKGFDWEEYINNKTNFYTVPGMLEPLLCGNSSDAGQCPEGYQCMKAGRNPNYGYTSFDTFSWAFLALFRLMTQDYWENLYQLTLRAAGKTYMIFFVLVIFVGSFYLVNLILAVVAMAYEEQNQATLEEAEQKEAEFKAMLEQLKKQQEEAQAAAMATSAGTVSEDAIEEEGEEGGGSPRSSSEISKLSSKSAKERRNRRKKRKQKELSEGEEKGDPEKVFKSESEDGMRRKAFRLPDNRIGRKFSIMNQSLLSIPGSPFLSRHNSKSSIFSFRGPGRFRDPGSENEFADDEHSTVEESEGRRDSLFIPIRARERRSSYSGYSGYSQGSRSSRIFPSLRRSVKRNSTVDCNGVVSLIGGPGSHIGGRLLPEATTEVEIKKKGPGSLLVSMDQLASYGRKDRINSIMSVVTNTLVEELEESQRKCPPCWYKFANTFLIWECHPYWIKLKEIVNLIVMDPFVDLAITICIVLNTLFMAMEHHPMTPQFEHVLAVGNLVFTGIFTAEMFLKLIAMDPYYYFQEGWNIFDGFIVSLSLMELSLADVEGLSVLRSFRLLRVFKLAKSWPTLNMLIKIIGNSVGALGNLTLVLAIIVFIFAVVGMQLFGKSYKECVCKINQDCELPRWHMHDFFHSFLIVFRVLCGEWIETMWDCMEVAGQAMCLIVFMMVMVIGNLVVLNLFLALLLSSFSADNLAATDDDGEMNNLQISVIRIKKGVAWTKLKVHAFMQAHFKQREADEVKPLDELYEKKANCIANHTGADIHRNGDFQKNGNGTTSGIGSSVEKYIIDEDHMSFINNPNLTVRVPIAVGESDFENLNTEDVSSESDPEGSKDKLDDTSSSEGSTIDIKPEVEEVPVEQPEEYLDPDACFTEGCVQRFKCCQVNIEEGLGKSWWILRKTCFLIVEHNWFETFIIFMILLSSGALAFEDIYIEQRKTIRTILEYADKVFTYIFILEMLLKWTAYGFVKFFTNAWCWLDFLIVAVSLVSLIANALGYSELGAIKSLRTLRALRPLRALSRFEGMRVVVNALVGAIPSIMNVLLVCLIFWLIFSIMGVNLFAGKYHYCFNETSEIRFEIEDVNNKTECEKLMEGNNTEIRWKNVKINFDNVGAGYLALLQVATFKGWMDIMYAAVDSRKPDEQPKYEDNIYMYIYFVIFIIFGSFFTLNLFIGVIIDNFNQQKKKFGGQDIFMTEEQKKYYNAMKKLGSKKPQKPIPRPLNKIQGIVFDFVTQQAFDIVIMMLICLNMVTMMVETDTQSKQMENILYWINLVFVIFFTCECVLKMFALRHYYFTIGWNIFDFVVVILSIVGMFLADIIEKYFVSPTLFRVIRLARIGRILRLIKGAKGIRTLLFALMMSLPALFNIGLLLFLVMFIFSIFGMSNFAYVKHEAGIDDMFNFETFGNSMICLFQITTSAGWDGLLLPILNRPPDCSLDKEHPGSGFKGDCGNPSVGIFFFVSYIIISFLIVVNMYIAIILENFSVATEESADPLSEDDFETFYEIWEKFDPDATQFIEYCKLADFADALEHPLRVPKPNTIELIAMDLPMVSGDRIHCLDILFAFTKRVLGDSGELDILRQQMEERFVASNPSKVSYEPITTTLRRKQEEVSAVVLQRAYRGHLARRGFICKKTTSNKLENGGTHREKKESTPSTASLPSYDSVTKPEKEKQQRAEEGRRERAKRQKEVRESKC
NaV1.6, sequence (Q07699 19-218 partner): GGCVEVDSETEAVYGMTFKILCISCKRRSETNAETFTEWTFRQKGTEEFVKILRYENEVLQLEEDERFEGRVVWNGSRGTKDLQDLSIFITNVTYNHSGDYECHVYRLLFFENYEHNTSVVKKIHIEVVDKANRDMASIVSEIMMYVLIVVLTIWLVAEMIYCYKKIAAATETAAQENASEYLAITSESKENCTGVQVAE

For orientation: IC50 means the concentration that gives 50% inhibition. Regarding `Cc1cc(S(=O)(=O)Nc2cscn2)c(F)cc1N(C)[C@H]1CCN(Cc2ccccc2)C1` [Compound 1, (S)-4-((1-benzylpyrrolidin-3-yl)(methyl)amino)-2-fluoro-5-methyl-N-(thiazol-4-yl)benzenesulfonamide], the IC50 was 272 nM.
